In general, IC50 refers to the concentration that inhibits the measured activity by half. The low end stands for greater potency in that assay, the high end for weaker potency in that assay.

T1 sequence (P28845 whole entry): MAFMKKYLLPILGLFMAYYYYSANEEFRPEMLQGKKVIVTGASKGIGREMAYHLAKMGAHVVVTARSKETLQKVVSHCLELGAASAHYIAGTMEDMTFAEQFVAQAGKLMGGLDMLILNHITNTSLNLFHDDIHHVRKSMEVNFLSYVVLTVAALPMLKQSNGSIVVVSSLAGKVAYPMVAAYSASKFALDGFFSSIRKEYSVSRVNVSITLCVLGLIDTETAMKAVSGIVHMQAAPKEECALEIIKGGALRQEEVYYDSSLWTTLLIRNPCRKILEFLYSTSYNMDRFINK

This assay has as its target T1, h-11βHSD1 (Homo sapiens, UniProt P28845).
T1 construct: made in house
Briefly: 11βHSD1 enzyme assay (SPA, 3H-cortisone to 3H-cortisol). Type of assay: biochemical. The note with it: extract of yeast transformed with h-11βHSD1; 120 nM 3H-cortisone, 4 mM β-NADPH, 60 min at 30° C. The procedure: ^3H-cortisone and anti-rabbit Ig coated scintillation proximity assay (SPA) beads were purchased from Amersham Pharmacia Biotech, β-NADPH was from Sigma and rabbit anti-cortisol antibodies were from Fitzgerald. An extract of yeast transformed with h-11βHSD1 (Hutt et al., FEBS Lett, 441, 25 (1998)) was used as the source of enzyme. The test compounds were dissolved in DMSO (10 mM). All dilutions were performed in a buffer containing 50 mM TRIS-HCl (Sigma Chemical Co), 4 mM EDTA (Sigma Chemical Co), 0.1% BSA (Sigma Chemical Co), 0.01% Tween-20 (Sigma Chemical Co) and 0.005% bacitracin (Novo Nordisk A/S), pH=7.4. Optiplate 96 wells plates were supplied by Packard. The amount of ^3H-cortisol bound to the SPA beads was measured on TopCount NXT, Packard.
h-11βHSD1, 120 nM ^3H-cortisone, 4 mM β-NADPH, antibody (1:200), serial dilutions of test compound and SPA particles (2 mg/well) were added to the wells. The reaction was initiated by mixing the different components and was allowed to proceed under shaking for 60 min at 30° C. The reaction was stopped be the addition of 10 fold excess of a stopping buffer containing 500 μM carbenoxolone and 1 μM cortisone. Data was analysed using GraphPad Prism software.
The compound `O=C(c1ccc2c(c1)-c1ccccc1C2)N1C2CCC1CC(O)C2` (single isomer, unassigned) [Example 1, (9H-Fluoren-3-yl)-(cis 3-hydroxy-8-aza-bicyclo[3.2.1]oct-8-yl)-methanone] came in with an IC50 of 0.008 µM. Take `O=C(c1ccc2c(c1)-c1ccccc1C2)N1C2CCC1CC(O)C2` (single isomer, unassigned) [Example 2, (9H-Fluoren-3-yl)-(trans 3-hydroxy-8-aza-bicyclo[3.2.1]oct-8-yl)-methanone]: the IC50 stood at 0.246 µM. `Cn1c2ccccc2c2cc(C(=O)N3C4CCC3CC(O)C4)ccc21` (centres unmarked) [Example 3, (3-Hydroxy-8-aza-bicyclo[3.2.1]oct-8-yl)-(9-methyl-9H-carbazol-3-yl)-methanone] registered an IC50 of 0.006 µM. `O=C(c1ccc2[nH]c3ccccc3c2c1)N1C2CCC1CC(O)C2` (centres unmarked) [Example 4, (9H-Carbazol-3-yl)-(3-hydroxy-8-aza-bicyclo[3.2.1]oct-8-yl)-methanone] registered an IC50 of 0.03 µM. The compound `Cn1c2ccccc2c2cc(C(=O)N3CC4CC3CC4O)ccc21` (centres unmarked) [Example 5, (5-Hydroxy-2-aza-bicyclo[2.2.1]hept-2-yl)-(9-methyl-9H-carbazol-3-yl)-methanone] returned an IC50 of 0.064 µM. In turn, `Cn1c2ccccc2c2cc(C(=O)N3CC4CC(O)CC3C4)ccc21` (centres unmarked) [Example 7, (3-Hydroxy-6-aza-bicyclo[3.2.1]oct-6-yl)-(9-methyl-9H-carbazol-3-yl)-methanone] displayed an IC50 of 0.36 µM. Regarding `Cn1c2ccccc2c2cc(C(=O)N3CC4CC(O)C3C4)ccc21` (centres unmarked) [Example 9, (6-Hydroxy-2-aza-bicyclo[2.2.1]hept-2-yl)-(9-methyl-9H-carbazol-3-yl)-methanone], the IC50 worked out at 0.274 µM. `O=C(c1ccc2[nH]c3ccccc3c2c1)N1CC2CC(O)C1C2` (centres unmarked) [Example 10, (9H-Carbazol-3-yl)-(6-hydroxy-2-aza-bicyclo[2.2.1]hept-2-yl)-methanone] registered an IC50 of 1.03 µM. Compound `O=C(NC1C2CC3CC1CC(O)(C3)C2)c1ccc2[nH]c3ccccc3c2c1` (centres unmarked) [Example 11, 9H-Carbazole-3-carboxylic acid (5-hydroxy-adamantan-2-yl)-amide] came in with an IC50 of 0.029 µM.

The compound `CN(C(=O)c1ccc2c(c1)c1ccccc1n2C)C1C2CC3CC1CC(O)(C3)C2` (centres unmarked) [Example 12, 9-Methyl-9H-carbazole-3-carboxylic acid (5-hydroxy-adamantan-2-yl)-methyl-amide] yielded a half-maximal inhibitory concentration (IC50) of 0.041 µM. Regarding `CN(C(=O)c1ccc2[nH]c3ccccc3c2c1)C1C2CC3CC1CC(O)(C3)C2` (centres unmarked) [Example 13, 9H-Carbazole-3-carboxylic acid (5-hydroxy-adamantan-2-yl)-methyl-amide], the half-inhibitory concentration (IC50) came to 0.076 µM.

Source of the values: patent US20100056600A1, “11BETA-HSD1 ACTIVE COMPOUNDS” (priority 2007, published 2010).
